In brackets after ≈: the same amount, converted by molar mass. Several values for one entry are separate records, joined by “and”; a condition that tells them apart may be missing. Equal values may be shown once. Read-outs that look alike come from different tables or passages of the source.
Columns and labels:
[1] = Solubility test in media with different pH; type: physicochemical; settings: for solubility: thermodynamic from solid, room temperature of 25° C.
Method: The hydrates obtained as above and the compound of formula A were tested for solubility in solutions with different pH. The test method was as follows.
1.1. Preparation of the Media with Different pH
pH1.0 medium: 9.0 mL of hydrochloric acid was diluted to 1000 mL with water and shaken well to obtain the medium.
pH4.5 medium: 6.80 g of potassium dihydrogen phosphate (KH2PO4) was dissolved in water and diluted to 1000 mL, adjusted to pH4.5 with phosphoric acid or sodium hydroxide, and shaken well to obtain the medium.
pH6.8 medium: 55.38 g of disodium hydrogen phosphate (Na2HPO4.12H2O) and 4.77 g of citric acid (C6H8O7.H2O) were dissolved in water and diluted to 1000 mL, adjusted to pH6.8 with phosphoric acid or sodium hydroxide, and shaken well to obtain the medium.
Pure water medium: purified water.
Test method: To a certain amount of test samples, the media with different pH were added gradually, respectively. The mixture was shaken continuously until it reached saturation. The weighing amount of the test sample and the amount of solvent were recorded and the concentration when the sample was dissolved was calculated.

[2] = Dissolution test of capsules (Chinese Pharmacopoeia 2015, General Method 0931, 2nd Method); type: physicochemical; settings: for Dissolution rate, Mean (%), 5 min / Dissolution rate, Mean (%), 10 min / Dissolution rate, Mean (%), 15 min / Dissolution rate, Mean (%), 20 min / Dissolution rate, Mean (%), 30 min / Dissolution rate, Mean (%), 45 min: mean of 6 capsules; for Dissolution rate, Mean (%), 5 min / Dissolution rate, Mean (%), 10 min / Dissolution rate, Mean (%), 15 min / Dissolution rate, Mean (%), 20 min / Dissolution rate, Mean (%), 30 min / Dissolution rate, Mean (%), 45 min / Dissolution rate, 5 min / Dissolution rate, 10 min / Dissolution rate, 15 min / Dissolution rate, 20 min / Dissolution rate, 30 min / Dissolution rate, 45 min: purified water, 50 rpm; for Dissolution rate, 5 min / Dissolution rate, 10 min / Dissolution rate, 15 min / Dissolution rate, 20 min / Dissolution rate, 30 min / Dissolution rate, 45 min: single capsules 1-6, hydrate
Method: The hydrates obtained hereinabove and the compound of formula A were tested for dissolution rate. The test method was as follows.
Step 1: Pretreating Raw Materials
The samples were passed through a 100 mesh sieve.
Step 2: Blending Raw Materials with Auxiliary Materials
The raw materials and lactose were weighed according to the prescription, mixed in equal increment, sieved and mixed.
The capsules were filled via a capsule filling plate and sealed. The difference of the filling amount was controlled to ±5%. The appearance was inspected to ensure that the sealing was correct and there was no split or deformation.
Test method: dissolution test method (Chinese Pharmacopoeia, edited in 2015, Chapter 4, General Method 0931, the 2nd Method)
Dissolution medium: aqueous solution
Specific test method: The sample was tested following the dissolution test method (Chinese Pharmacopoeia, edited in 2015, Chapter 4, General Method 0931, the 2nd Method). 900 ml aqueous solution was used as the dissolution medium. The speed was 50 rpm. The test was performed in accordance with the method. […] After filtration, the filtrate was precisely measured and quantitatively diluted with the dissolution medium to prepare a solution containing about 10 μg of sample per 1 ml. The absorbance was measured by at 231 nm by UV-Vis spectrophotometry (Chinese Pharmacopoeia, edited in 2015, Chapter 4, General Method 0931, the 2nd Method). An appropriate amount of the control sample was taken, weighed accurately, dissolved in dissolution medium and diluted quantitatively to prepare a solution containing about 10 μg of the sample per 1 ml, and then measured in the same way. The amount of dissolution per capsule was calculated.

[3] = Stability test (influencing factors: light, high temperature, high humidity); type: physicochemical; settings: for stability under high temperature and high humidity conditions (in words): 60° C., 92.5% RH
Method: Test process: An appropriate amount of each test sample was placed on a clean watch glass without a lid and then placed under the conditions of light 4500 lx±500 lx, high temperature of 60° C., high humidity of 92.5% RH for 5 days and 10 days, respectively. The properties and related substances were determined and the results were compared with the results at day 0 to observe the stability.
The test method for related substances was as follows.
Preparation of test sample solution: About 10 mg of each test sample was placed in a 10 ml volumetric flask, and 50% acetonitrile aqueous solution was added to dissolve sample, and diluted to the mark, shaken well, and filtered to obtain the test sample solution. A precise amount of 10 μl of the test sample solution was taken and injected according to the above chromatographic method, and the maximum single impurity and total impurity were calculated according to the area normalization method.

[4] = test system: neutrophils; assay: PGD2-induced neutrophils migration, Boyden chamber assay (Example 1); type: cell-based, mice; settings: pretreatment CT-NA 1 and 10 μM (p<0.01) or OC459; PGD2 1 μM; 4 hrs
Method: The mice were intragastrically administered glycogen (1.5%) at the dose range of 20 ml/kg of body weight. 4 hrs later, the mice were euthanized to isolate neutrophils from the peritoneal lavage. The effect of CT-NA on neutrophils migration was detected by using the Boyden chamber assay kit (3 μm pore size). PGD2 was used as a chemoattractant because the activated PGD2/CRTH2 receptors promoted the migration of neutrophils. Initially, the isolated neutrophils (4×10^5) were diluted in 100 μL HBSS and allowed to migrate toward PGD2 (0.1, 1 and 10 μM) for 4 hrs to find out the suitable PGD2 concentration. Then, the isolated neutrophils (4×10^5) were pretreated with CT-NA (1 and 10 μM), and their migration to PGD2 (1 μM) was evaluated by counting the migrated neutrophils. Moreover, another potent CRTH2 inhibitor OC459 was used to countercheck the outcomes of CT-NA.

[5] = test system: neutrophils; assay: PGD2-induced neutrophils migration in vitro, Boyden chamber (Example 2); type: cell-based, mice; settings: pretreatment CT-NA 1 μM or 10 μM, OC459 10 μM; 4 hrs; P<0.01
Method: The method for isolating neutrophils and testing effect of CT-NA on neutrophils migration was briefly described as follows. 1.5% glycogen was injected intragastrically into mice at a dose of 20 ml/kg body weight. 4 hrs later, the mice were euthanized to isolate neutrophils from the peritoneal lavage. Effect of CT-NA on the migration of neutrophils was detected using the Boyden chamber assay kit (3 um pore size, Billerica, Mass.). PGD2 was used as a chemoattractant because the activated PGD2/CRTH2 receptors promoted the neutrophils migration. Firstly, the isolated neutrophils were inoculated at 4×10^5 cells/ml into the upper side of well of the Boyden chamber, and the lower chamber contained different concentrations of PGD2 (0.1, 1 and 10 μM), and the neutrophils were allowed to migrate towards PGD2 for 4 hrs at 37° C. in order to find out the suitable PGD2 concentration. After evaluation of the suitable PGD2 concentration, the migration of neutrophils pretreated with CT-NA (1 and 10 μM) and OC459 (10 μM), another effective CRTH2 inhibitor, toward PGD2 (1 μM) was assessed for 4 hrs.

[6] = high temperature 60° C., Day 10
[7] = light condition 4500 lx±500 lx, Day 5
[8] = light condition 4500 lx±500 lx, Day 10

Row | Structure (SMILES) | stability under high temperature and high humidity conditions (in words) ([3]; 5 and 10 days) | maximum single impurity % ([3]; Day 0) [%] | property ([3]; Day 0) | total impurity % ([3]; Day 0) [%] | maximum single impurity % ([3]; high humidity 92.5% RH, Day 5) [%] | property ([3]; high humidity 92.5% RH, Day 5) | total impurity % ([3]; high humidity 92.5% RH, Day 5) [%] | maximum single impurity % ([3]; high humidity 92.5% RH, Day 10) [%] | property ([3]; high humidity 92.5% RH, Day 10) | total impurity % ([3]; high humidity 92.5% RH, Day 10) [%] | maximum single impurity % ([3]; high temperature 60° C., Day 5) [%] | property ([3]; high temperature 60° C., Day 5) | total impurity % ([3]; high temperature 60° C., Day 5) [%] | maximum single impurity % [3, 6] [%] | property [3, 6] | total impurity % [3, 6] [%] | maximum single impurity % [3, 7] [%] | property [3, 7] | total impurity % [3, 7] [%] | maximum single impurity % [3, 8] [%] | other results
1 | CN([C@@H]1CCc2c(CC(=O)O)c3cccnc3n2C1)S(=O)(=O)c1ccc(F)cc1 (racemic) [Compound A] | relatively stable | 0.08 | white powder | 0.32 | 0.08 | white powder | 0.31 | 0.07 | white powder | 0.26 | 0.07 | white powder | 0.24 | 0.08 | white powder | 0.25 | 4.66 | light yellow powder | 5.28 | 15.02 | water solubility at different pH (comparison in words) ([1]; pH 1.0, 4.5, 6.8 and purified water): poor water solubility; solubility ([1]; pH 1.0 medium (dilute hydrochloric acid), pH 1, simulated gastric fluid, pH1.0 medium, read-out: Solubility, pH = 1.0): 1.25 µg/mL (≈ 2.99 µM); solubility ([1]; pH 4.5 medium (potassium dihydrogen phosphate solution), pH 4.5, aqueous buffer, pH4.5 medium, read-out: Solubility, pH = 4.5): 1.67 µg/mL (≈ 4 µM); solubility ([1]; pH 6.8, aqueous buffer, pH6.8 medium, read-out: Solubility, pH = 6.8): 2 µg/mL (≈ 4.79 µM); solubility ([1]; purified water, read-out: Solubility, purified water): 2 µg/mL (≈ 4.79 µM); solubility in water (in words) ([1]; water): insoluble in water; dissolution rate (in words) ([2]; same method, aqueous dissolution medium): basically zero; stability under light condition (in words) ([3]; light 4500 lx±500 lx, 5 and 10 days): degrades significantly; property [3, 8]: light yellow powder; total impurity % [3, 8]: 15.25%
2 | CN([C@@H]1CCc2c(CC(=O)[O-])c3cccnc3n2C1)S(=O)(=O)c1ccc(F)cc1.[Li+] [Lithium salt hydrate] | relatively stable | 0.59 | white powder | 0.87 | 0.55 | white powder | 0.72 | 0.56 | white powder | 0.76 | 0.56 | white powder | 0.79 | 0.56 | white powder | 0.78 | 0.61 | light yellow powder | 0.93 | 0.78 | Dissolution rate, Mean (%), 5 min [2]: 34.6%; Dissolution rate, Mean (%), 10 min [2]: 67.4%; Dissolution rate, Mean (%), 15 min [2]: 79.8%; Dissolution rate, Mean (%), 20 min [2]: 85.3%; Dissolution rate, Mean (%), 30 min [2]: 85.2%; Dissolution rate, Mean (%), 45 min [2]: 85.7%; Dissolution rate, 5 min [2]: 36.5% and 42.6% and 34.7% and 34.4% and 35.6% and 23.9%; Dissolution rate, 10 min [2]: 78.7% and 75.4% and 74.4% and 60.4% and 74.8% and 40.4%; Dissolution rate, 15 min [2]: 83.6% and 82.7% and 83.4% and 81.4% and 81.3% and 66.1%; Dissolution rate, 20 min [2]: 84.3% and 87% and 85.9% and 84.9% and 85.5% and 84.4%; Dissolution rate, 30 min [2]: 85.9% and 85.2% and 85.8% and 84.6% and 84.4% and 85.3%; Dissolution rate, 45 min [2]: 85.5% and 85.6% and 88.3% and 84.2% and 85.3%; property [3, 8]: light yellow powder; total impurity % [3, 8]: 1.21%
3 | Cc1c(Cc2ccc3ccccc3n2)c2cc(F)ccc2n1CC(=O)O [OC459, reference compound] | – | – | – | – | – | – | – | – | – | – | – | – | – | – | – | – | – | – | – | – | PGD2-induced neutrophils migration [4]: inhibited; neutrophils migration induced by 1 μM PGD2 [5]: significantly reduced
4 | CN([C@@H]1CCc2c(CC(=O)[O-])c3cccnc3n2C1)S(=O)(=O)c1ccc(F)cc1.[K+] [Potassium salt hydrate] | relatively stable | 0.34 | white powder | 0.49 | 0.34 | Molten solid | 0.45 | 0.31 | colorless liquid | 0.48 | 0.34 | white powder | 0.45 | 0.33 | white powder | 0.45 | 0.33 | light yellow powder | 0.72 | 0.33 | Dissolution rate, Mean (%), 5 min [2]: 31.6%; Dissolution rate, Mean (%), 10 min [2]: 74.1%; Dissolution rate, Mean (%), 15 min [2]: 83.0%; Dissolution rate, Mean (%), 20 min [2]: 85.6%; Dissolution rate, Mean (%), 30 min [2]: 87.0%; Dissolution rate, Mean (%), 45 min [2]: 86.9%; Dissolution rate, 5 min [2]: 30.7% and 28.9% and 24.1% and 34.9% and 41.7% and 29.6%; Dissolution rate, 10 min [2]: 80.4% and 53.3% and 81.5% and 72.3% and 77.6% and 79.2%; Dissolution rate, 15 min [2]: 83.7% and 80.8% and 87.4% and 84.4% and 79.5% and 82.1%; Dissolution rate, 20 min [2]: 86.4% and 83.1% and 89.2% and 87.8% and 83.0% and 84.1%; Dissolution rate, 30 min [2]: 86.9% and 86.7% and 90.2% and 87.4% and 85.0% and 85.6%; Dissolution rate, 45 min [2]: 85.6% and 86.7% and 91.3% and 87.0% and 85.8% and 84.9%; property [3, 8]: light yellow powder; total impurity % [3, 8]: 0.88%
